Data on 35 molecules can be found in patent US8653089B2, “Heterocyclic compounds and methods of use” (F. Hoffmann-La Roche AG, priority 2011, dated 2014).

The structures appear in SMILES notation.

For one experiment, the system named is production of CD69 by B lymphocytes in human whole blood activated by crosslinking surface IgM. In words: CD69 human whole blood assay (Example 903), FACS. Type of experiment: cell-based. The settings on record: B lymphocytes activated with goat F(ab')2 anti-human IgM, read-out: CD69 Hu Blood FACS IC50. From the text:
There is good evidence that B-cells play a key role in the pathogenesis of autoimmune and/or inflammatory disease. Protein-based therapeutics that deplete B cells such as Rituxan are effective against autoantibody-driven inflammatory diseases such as rheumatoid arthritis (Rastetter et al. (2004) Annu Rev Med 55:477). CD69 is the early activation marker in leukocytes including T cells, thymocytes, B cells, NK cells, neutrophils, and eosinophils. The CD69 human whole blood assay (Example 903) determines the ability of compounds to inhibit the production of CD69 by B lymphocytes in human whole blood activated by crosslinking surface IgM with goat F(ab′)2 anti-human IgM.
Regarding `CC(Nc1ncnc2[nH]cnc12)c1nc2ccc(F)cc2n1-c1cccnc1` (centres unmarked) [Example 176, [1-(6-Fluoro-1-pyridin-3-yl-1H-benzoimidazol-2-yl)-ethyl]-(9H-purin-6-yl)-amine], the IC50 amounted to 62.9 nM. Same read-out and setting: then `CC(Nc1ncnc2[nH]cnc12)c1nc2ccc(F)cc2n1-c1ccc(F)cc1` (centres unmarked) [Example 186, {1-[6-Fluoro-1-(4-fluoro-phenyl)-1H-benzoimidazol-2-yl]-ethyl}-(9H-purin-6-yl)-amine], with 134 nM; and `CC(Nc1ncnc2[nH]cnc12)c1nc2ccc(F)c(C#N)c2n1-c1ccccc1` (centres unmarked) [Example 189, 5-Fluoro-3-phenyl-2-[1-(9H-purin-6-ylamino)-ethyl]-3H-benzoimidazole-4-carbonitrile], with 39.5 nM; and `CC(Nc1ncnc2[nH]cnc12)c1nc2ccc(F)cc2n1-c1ccc(C#N)cc1` (centres unmarked) [Example 248, 4-{6-Fluoro-2-[1-(9H-purin-6-ylamino)-ethyl]-benzoimidazol-1-yl}-benzonitrile], with 78.9 nM.

Still in this experiment, the particulars now being: Homo sapiens, Lymphocyte, B lymphocytes activated with goat F(ab')2 anti-human IgM, read-out: CD69 Hu Blood FACS IC50.
Regarding `CC(C)N1CC(n2c([C@H](C)Nc3ncnc4[nH]cnc34)nc3ccc(F)cc32)C1` [Example 380, N-[(1S)-1-[6-fluoro-1-(1-isopropylazetidin-3-yl)benzimidazol-2-yl]ethyl]-9H-purin-6-amine], the IC50 came out at 58.2 nM.

Consider `CC(C)n1c([C@H](C)Nc2ncnc3[nH]cnc23)nc2ccc(F)c(-c3ccccn3)c21` [Example 409, N-[(1S)-1-[6-fluoro-1-isopropyl-7-(2-pyridyl)benzimidazol-2-yl]ethyl]-9H-purin-6-amine], for which the IC50 worked out at 64.2 nM. Still for that read-out and setting: then `C[C@H](Nc1ncnc(N)c1C#N)c1nc2cccc(C3CC3)c2n1-c1cccnc1` [Example 299, 4-Amino-6-[(S)-1-(7-cyclopropyl-1-pyridin-3-yl-1H-benzoimidazol-2-yl)-ethylamino]-pyrimidine-5-carbonitrile], with 35.5 nM. The same measure, in the same setting: then `CC[C@H](Nc1ncnc2[nH]cnc12)c1nc2ccc(F)cc2n1-c1ccccn1` [Example 247, [(S)-1-(6-Fluoro-1-pyridin-2-yl-1H-benzoimidazol-2-yl)-propyl]-(9H-purin-6-yl)-amine], with 405 nM. The same measure, in the same setting: then `C[C@H](Nc1ncnn2ccnc12)c1nc2ccc(F)cc2n1-c1ccccc1` [Example 321, [(S)-1-(6-Fluoro-1-phenyl-1H-benzoimidazol-2-yl)-ethyl]-imidazo[2,1-f][1,2,4]triazin-4-yl-amine], with 18.8 nM.

As to `C[C@H](Nc1ncnc(N)c1C#N)c1nc2ccc(F)cc2n1-c1cncc(F)c1` [Example 277, 4-Amino-6-{(S)-1-[6-fluoro-1-(5-fluoro-pyridin-3-yl)-1H-benzoimidazol-2-yl]-ethylamino}-pyrimidine-5-carbonitrile], the IC50 is 18 nM.

Turning to `CC(Nc1ncnc2[nH]cnc12)c1nc2ccc(F)cc2n1-c1ccccc1F` (centres unmarked) [Example 195, {1-[6-Fluoro-1-(2-fluoro-phenyl)-1H-benzoimidazol-2-yl]-ethyl}-(9H-purin-6-yl)-amine], the IC50 was found to be 53 nM. The same measure, in the same setting: then `Cc1nc(N)nc(N[C@@H](C)c2nc3ccc(F)cc3n2-c2ccccc2)c1C#N` [Example 328, 2-Amino-4-[(S)-1-(6-fluoro-1-phenyl-1H-benzoimidazol-2-yl)-ethylamino]-6-methyl-pyrimidine-5-carbonitrile], with 3.44 nM. For the molecule `C[C@H](Nc1ncnc2[nH]cnc12)c1nc2ccc(F)c(C3CC3)c2n1-c1cccnc1` [Example 294, [(S)-1-(7-Cyclopropyl-6-fluoro-1-pyridin-3-yl-1H-benzoimidazol-2-yl)-ethyl]-(9H-purin-6-yl)-amine], the 50% inhibitory concentration (IC50) is 4.1 nM.

Consider `C[C@H](Nc1ncnc2[nH]cnc12)c1nc2ccc(F)cc2n1-c1cccc(F)c1` [Example 185, {(S)-1-[6-Fluoro-1-(3-fluoro-phenyl)-1H-benzoimidazol-2-yl]-ethyl}-(9H-purin-6-yl)-amine], for which the IC50 turned out to be 52.1 nM. Same read-out and setting: then `CC(Nc1ncnc2[nH]cnc12)c1nc2ccc(F)cc2n1-c1ccccc1` (centres unmarked) [Example 194, [1-(6-Fluoro-1-phenyl-1H-benzoimidazol-2-yl)-ethyl]-(9H-purin-6-yl)-amine], with 50.8 nM; and `OCC[C@H](Nc1ncnc2[nH]cnc12)c1nc2ccc(F)cc2n1-c1ccccc1` [Example 187, (S)-3-(6-Fluoro-1-phenyl-1H-benzoimidazol-2-yl)-3-(9H-purin-6-ylamino)-propan-1-ol], with 119 nM. The same measure, in the same setting: then `C[C@H](Nc1ncnc(N)c1C#N)c1nc2ccc(F)c(C3CC3)c2n1-c1cccnc1` [Example 306, 4-Amino-6-[(S)-1-(7-cyclopropyl-6-fluoro-1-pyridin-3-yl-1H-benzoimidazol-2-yl)-ethylamino]-pyrimidine-5-carbonitrile], with 2.87 nM; and `CC(Nc1ncnc2[nH]cnc12)c1nc2ccc(F)c(C3CC3)c2n1-c1ccccc1` (centres unmarked) [Example 198, [1-(7-Cyclopropyl-6-fluoro-1-phenyl-1H-benzoimidazol-2-yl)-ethyl]-(9H-purin-6-yl)-amine], with 10.9 nM; and `C[C@H](Nc1ncnc2[nH]cnc12)c1nc2ccc(F)cc2n1[C@H]1C[C@@H](O)C1` [Example 390, 3-[6-fluoro-2-[(1S)-1-(9H-purin-6-ylamino)ethyl]benzimidazol-1-yl]cyclobutanol], with 146 nM. Same read-out and setting: then `Cc1c(F)ccc2nc([C@H](C)Nc3ncnc(N)c3C#N)n(-c3ccccn3)c12` [Example 289, 4-Amino-6-[(S)-1-(6-fluoro-7-methyl-1-pyridin-2-yl-1H-benzoimidazol-2-yl)-ethylamino]-pyrimidine-5-carbonitrile], with 48.3 nM; and `CC[C@H](Nc1ncnc2[nH]cnc12)c1nc2ccc(F)c(C#N)c2n1-c1ccccc1` [Example 244, 5-Fluoro-3-phenyl-2-[(S)-1-(9H-purin-6-ylamino)-propyl]-3H-benzoimidazole-4-carbonitrile], with 79.3 nM; and `C[C@H](Nc1ncnc2[nH]cnc12)c1nc2cccc(C#N)c2n1-c1ccccc1` [Example 279, 3-Phenyl-2-[(S)-1-(9H-purin-6-ylamino)-ethyl]-3H-benzoimidazole-4-carbonitrile], with 184 nM. `CC(Nc1ncnc2[nH]cnc12)c1nc2ccc(F)c(C#N)c2n1-c1ccccc1` (centres unmarked) [Example 217, 5-Fluoro-3-phenyl-2-[1-(9H-purin-6-ylamino)-ethyl]-3H-benzoimidazole-4-carbonitrile]: the IC50 was determined as 43.3 nM. On the same count and under the same terms, then `C[C@H](Nc1ncnc2[nH]cnc12)c1nc2ccc(F)c(Br)c2n1-c1ccccc1` [Example 178, [(S)-1-(7-Bromo-6-fluoro-1-phenyl-1H-benzoimidazol-2-yl)-ethyl]-(9H-purin-6-yl)-amine], with 80.6 nM; and `C[C@H](Nc1ncnn2ccnc12)c1nc2ccc(F)cc2n1-c1ccccn1` [Example 322, [(S)-1-(6-Fluoro-1-pyridin-2-yl-1H-benzoimidazol-2-yl)-ethyl]-imidazo[2,1-f][1,2,4]triazin-4-yl-amine], with 145 nM. As for `COC[C@H](Nc1ncnc(N)c1C#N)c1nc2ccc(F)cc2n1-c1ccccn1` [Example 271, 4-Amino-6-[(R)-1-(6-fluoro-1-pyridin-2-yl-1H-benzoimidazol-2-yl)-2-methoxy-ethylamino]-pyrimidine-5-carbonitrile], the IC50 is 38.8 nM.

Turning to `C[C@H](Nc1ncnc2[nH]cnc12)c1nc2ccc(F)cc2n1C1CCCCC1` [Example 201, [(S)-1-(1-Cyclohexyl-6-fluoro-1H-benzoimidazol-2-yl)-ethyl]-(9H-purin-6-yl)-amine], the IC50 worked out at 118 nM. Still for that read-out and setting: then `COCC(Nc1ncnc2[nH]cnc12)c1nc2ccc(F)c(F)c2n1-c1ccccc1` (centres unmarked) [Example 190, [1-(6,7-Difluoro-1-phenyl-1H-benzoimidazol-2-yl)-2-methoxy-ethyl]-(9H-purin-6-yl)-amine], with 247 nM.

With `C[C@H](Nc1ncnc2[nH]cnc12)c1nc2ccc(F)cc2n1-c1ccn(C)n1` [Example 403, N-[(1S)-1-[6-fluoro-1-(1-methylpyrazol-3-yl)benzimidazol-2-yl]ethyl]-9H-purin-6-amine], the half-inhibitory concentration (IC50) was found to be 163 nM.

As to `OCC[C@H](Nc1ncnc2[nH]cnc12)c1nc2ccc(F)cc2n1-c1ccccn1` [Example 304, (S)-3-(6-Fluoro-1-pyridin-2-yl-1H-benzoimidazol-2-yl)-3-(9H-purin-6-ylamino)-propan-1-ol], the IC50 is 172 nM. The same measure, in the same setting: then `CCC(Nc1ncnc2nc[nH]c12)c1nc2ccc(F)cc2n1-c1ccccc1` (centres unmarked) [Example 212, [1-(6-Fluoro-1-phenyl-1H-benzoimidazol-2-yl)-propyl]-(7H-purin-6-yl)-amine], with 55.5 nM; and `CC(Nc1ncnc2[nH]cnc12)c1nc2ccc(F)c(C(=O)N3CCOCC3)c2n1-c1ccccc1` (centres unmarked) [Example 203, {5-Fluoro-3-phenyl-2-[1-(9H-purin-6-ylamino)-ethyl]-3H-benzoimidazol-4-yl}-morpholin-4-yl-methanone], with 2.83 nM; and `C[C@H](Nc1ncnc(N)c1C#N)c1nc2ccc(F)c(-c3ccccn3)c2n1C` [Example 411, 4-amino-6-[[(1S)-1-[6-fluoro-1-methyl-7-(2-pyridyl)benzimidazol-2-yl]ethyl]amino]pyrimidine-5-carbonitrile], with 895 nM. Still for that read-out and setting: then `COC[C@H](Nc1ncnc2[nH]cnc12)c1nc2ccc(F)cc2n1-c1ccccn1` [Example 270, [(R)-1-(6-Fluoro-1-pyridin-2-yl-1H-benzoimidazol-2-yl)-2-methoxy-ethyl]-(9H-purin-6-yl)-amine], with 152 nM; and `C[C@H](Nc1ncnc(N)c1C#N)c1nc2ccc(F)cc2n1-c1ccccn1` [Example 275, 4-Amino-6-[(S)-1-(6-fluoro-1-pyridin-2-yl-1H-benzoimidazol-2-yl)-ethylamino]-pyrimidine-5-carbonitrile], with 27.5 nM.
